Literature values in patent US12377108B2 (Curantis UG, priority 2018, dated 2025).

Legend:
[1] = of the activity of Δ9-THC
[2] = oral administration; first pass hepatic metabolism

## CCCCCc1cc(O)c2c(c1)OC(C)(C)c1ccc(C)cc1-2 [CBN, Cannabinol]
[1]
  activity relative to Δ9-THC: 10%

## C=C(C)[C@@H]1CCC(C)=C[C@H]1c1c(O)cc(CCCCC)cc1O [CBD, Cannabidiol]
[2]
  oral bioavailability: < 5%
